Non-standard residues stand in square brackets, D forms with d. Residues, ends and D or L forms follow the SMILES beside them. Nva = CCC[C@H](N)C(=O)O; Sar = CNCC(=O)O
How the values were obtained:
Assay type in all cases: functional
Mus musculus [1] = organism: Mus musculus; assay: Compound (0.10 ug/mL) was tested for their immunomodulatory activity in vitro using lymphocyte transformation test
Mus musculus [2] = organism: Mus musculus; assay: Compound (0.10 ug/mL) was tested for their immunomodulatory activity in vitro using mixed lymphocyte reaction
Mus musculus [3] = organism: Mus musculus; assay: Compound (1.0 ug/mL) was tested for their immunomodulatory activity in vitro using lymphocyte transformation test
Mus musculus [4] = organism: Mus musculus; assay: Compound (1.0 ug/mL) was tested for their immunomodulatory activity in vitro using mixed lymphocyte reaction
Mus musculus [5] = organism: Mus musculus; assay: Compound (10 ug/mL) was tested for their immunomodulatory activity in vitro using lymphocyte transformation test
Mus musculus [6] = organism: Mus musculus; assay: Compound (10 ug/mL) was tested for their immunomodulatory activity in vitro using mixed lymphocyte reaction
Mus musculus [7] = organism: Mus musculus; assay: Compound (0.01 ug/mL) was tested for their immunomodulatory activity in vitro using lymphocyte transformation test
Mus musculus [8] = organism: Mus musculus; assay: Compound (0.01 ug/mL) was tested for their immunomodulatory activity in vitro using mixed lymphocyte reaction

Compound | Stimulation index (Mus musculus [1]) | Stimulation index (Mus musculus [2]) | Stimulation index (Mus musculus [3]) | Stimulation index (Mus musculus [4]) | Stimulation index (Mus musculus [5]) | Stimulation index (Mus musculus [6]) | Stimulation index (Mus musculus [7]) | Stimulation index (Mus musculus [8])
CC(C)[C@H](NC(=O)[C@@H](N)Cc1ccc(O)cc1)C(=O)N1CCC[C@H]1C(=O)NCC(=O)N[C@@H](Cc1ccccc1)C(=O)N1CCC[C@H]1C(=O)O | 1.05 | 0.79 | 1.02 | 0.85 | 0.75 | 1 | 1.13 | 0.72
CC(C)[C@H](NC(=O)[C@@H](N)Cc1ccc(O)cc1)C(=O)N1CCC[C@H]1C(=O)NCC(=O)N[C@@H](Cc1ccccc1)C(=O)N(C)CC(=O)O (H-YVPGF[Sar]-OH) | 0.61 | 0.8 | 1.9 | 0.72 | 1.6 | 0.92 | 0.83 | 0.71
CC(C)C[C@H](NC(=O)[C@@H]1CCCN1C(=O)[C@@H](NC(=O)[C@@H](N)Cc1ccc(O)cc1)C(C)C)C(=O)N[C@@H](Cc1ccccc1)C(=O)N(C)CC(=O)O (H-YVPLF[Sar]-OH) | 0.86 |  | 1.21 |  | 1.2 |  | 0.9 | 
CC(C)[C@H](NC(=O)[C@@H](N)Cc1ccc(O)cc1)C(=O)N1CCC[C@H]1C(=O)N(C)CC(=O)N[C@@H](Cc1ccccc1)C(=O)N1CCC[C@H]1C(=O)O (H-YVP[Sar]FP-OH) | 1.21 |  | 1.37 |  | 0.96 |  | 1.41 | 
CCC[C@H](NC(=O)[C@@H](N)Cc1ccc(O)cc1)C(=O)N1CCC[C@H]1C(=O)NCC(=O)N[C@@H](Cc1ccccc1)C(=O)N1CCC[C@H]1C(=O)O (H-Y[Nva]PGFP-OH) | 1.06 |  | 1.15 |  | 0.73 |  | 0.86 | 
CC(C)C[C@H](NC(=O)CN(C)C(=O)[C@@H](NC(=O)[C@@H](N)Cc1ccc(O)cc1)C(C)C)C(=O)N[C@@H](Cc1ccccc1)C(=O)N1CCCC1C(=O)O (single isomer, unassigned) | 0.97 |  | 1.24 |  | 1.12 |  | 0.88 | 
C[C@]12C=CC(=O)C=C1CCC1[C@@H]2[C@@H](O)C[C@@]2(C)[C@H]1CC[C@]2(O)C(=O)CO (single isomer, unassigned) [PREDNISOLONE] |  | 0.3 |  |  |  |  |  | 
CC(C)C[C@H](NC(=O)C1CCCN1C(=O)[C@@H](NC(=O)C(N)Cc1ccc(O)cc1)C(C)C)C(=O)N[C@@H](Cc1ccccc1)C(=O)N1CCCC1C(=O)O (single isomer, unassigned; form 1) | 1.08 |  | 0.88 |  | 0.82 |  | 1.1 | 
CC(C)[C@H](NC(=O)[C@@H](N)Cc1ccc(O)cc1)C(=O)N1CCCC1C(=O)NCC(=O)NC(Cc1ccccc1)C(=O)N1CCCC1C(=O)O (single isomer, unassigned; form 1) | 1.02 |  | 0.96 |  | 1.05 |  | 0.89 | 
CC(C)C[C@H](NC(=O)C1CCCN1C(=O)[C@@H](NC(=O)C(N)Cc1ccc(O)cc1)C(C)C)C(=O)N[C@@H](Cc1ccccc1)C(=O)N1CCCC1C(=O)O (single isomer, unassigned; form 2) | 0.86 |  | 1.27 |  | 0.95 |  | 0.78 | 
CC(C)[C@H](NC(=O)[C@@H](N)Cc1ccc(O)cc1)C(=O)N1CCCC1C(=O)NCC(=O)NC(Cc1ccccc1)C(=O)N1CCCC1C(=O)O (single isomer, unassigned; form 2) | 1.29 | 0.9 | 1.17 | 1.31 | 1.4 | 1 | 0.97 | 0.96
H-YLPGFP-OH | 0.64 | 0.5 | 0.62 | 1.2 | 0.59 | 1.24 | 0.75 | 0.63
H-YVPGFP-NH2 | 0.85 |  | 1.1 |  | 0.84 |  | 0.83 | 

Reference: ChEMBL document CHEMBL1132895, “Immunomodulatory activity of hexapeptides related to proline rich peptide from colostrum” (2000)
